{"source": "paper PMC2941209", "about": "(Synapse (New York, N.Y.), 2010)", "key": {"SERT [1]": {"target": "T1, SERT (Rattus norvegicus, UniProt P31652)", "T1 sequence (P31652 whole entry)": "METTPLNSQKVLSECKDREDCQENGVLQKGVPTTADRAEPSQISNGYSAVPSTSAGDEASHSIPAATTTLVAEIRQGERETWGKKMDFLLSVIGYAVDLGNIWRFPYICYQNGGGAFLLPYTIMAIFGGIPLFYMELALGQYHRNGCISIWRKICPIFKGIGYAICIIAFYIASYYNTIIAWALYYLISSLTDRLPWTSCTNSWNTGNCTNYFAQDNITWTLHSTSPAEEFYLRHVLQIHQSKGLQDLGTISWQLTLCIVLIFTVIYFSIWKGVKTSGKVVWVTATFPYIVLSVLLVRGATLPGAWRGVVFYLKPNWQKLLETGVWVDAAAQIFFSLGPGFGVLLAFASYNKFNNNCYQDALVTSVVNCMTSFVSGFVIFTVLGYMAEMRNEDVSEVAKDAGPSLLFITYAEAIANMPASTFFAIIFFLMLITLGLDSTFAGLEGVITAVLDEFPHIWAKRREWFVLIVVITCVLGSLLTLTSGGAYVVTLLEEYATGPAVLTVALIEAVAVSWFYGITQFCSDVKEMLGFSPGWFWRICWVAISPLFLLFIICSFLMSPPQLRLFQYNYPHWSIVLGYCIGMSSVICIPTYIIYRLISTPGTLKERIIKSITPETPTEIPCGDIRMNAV", "test": "[3H]5-HT release assay", "details": "for Emax [3H]5-HT release, 15 μM EG-1-149 / Emax [3H]5-HT release, NO EG-1-149: ±SD (n=6); for EMAX substrate-induced [3H]5-HT release, CONTROL: substrate alone (control), 100% = release by 100 μM tyramine, ±SD"}, "DAT": {"system": "DAT", "details": "read-out: IC50 reuptake inhibition, DAT; ref Greiner et al., 2003; cited from earlier work"}, "SERT [2]": {"target": "T1, SERT", "test": "biochemical"}, "SERT [3]": {"target": "T1, SERT", "test": "[3H]5-HT uptake inhibition assay", "format": "biochemical"}, "[4]": {"details": "1 μM test compound, substrate MDMA"}}, "note": "“And” between values parts separate entries of the source, which are not always exact repeats. Equal entries are not always repeated. Structures can show the parent of a compound that is named as a salt.", "data": [{"smiles": "CNC(C)Cc1ccc2c(c1)OCO2", "note": "(racemic) [(±)-MDMA]", "values": [{"measurement": "EC50", "setting": "SERT [1]", "result": "88 ± 10", "unit": "nM"}, {"measurement": "Emax", "setting": "SERT [1]; read-out: EMAX substrate-induced [3H]5-HT release, CONTROL", "result": 105, "unit": "%"}]}, {"smiles": "CC(N)Cc1cccc(C(F)(F)F)c1", "note": "(single isomer, unassigned; (+)) [(+)-Norfenfluramine]", "values": [{"measurement": "Emax [3H]5-HT release, 15 μM EG-1-149", "setting": "SERT [1]; release time 5 min", "result": "81 ± 3", "unit": "%I"}, {"measurement": "Emax [3H]5-HT release, 15 μM EG-1-149", "setting": "SERT [1]; release time 5 min, listed as (+)-norfenfluramine", "result": "81±3", "unit": "%I"}, {"measurement": "Emax [3H]5-HT release, NO EG-1-149", "setting": "SERT [1]; release time 5 min", "result": "114 ± 8", "unit": "%I"}, {"measurement": "Emax [3H]5-HT release, 15 μM EG-1-149", "setting": "SERT [1]; release time 15 min", "result": "97 ± 4", "unit": "%I"}, {"measurement": "Emax [3H]5-HT release, 15 μM EG-1-149", "setting": "SERT [1]; release time 15 min, listed as (+)-norfenfluramine", "result": "97±4", "unit": "%I"}, {"measurement": "Emax [3H]5-HT release, NO EG-1-149", "setting": "SERT [1]; release time 15 min", "result": "111 ± 5", "unit": "%I"}, {"measurement": "EMAX substrate-induced [3H]5-HT release, CONTROL", "setting": "SERT [1]", "result": "113±6", "unit": "%"}]}, {"smiles": "NCCc1c[nH]c2ccc(O)cc12", "note": "[5-HT]", "values": [{"measurement": "EMAX substrate-induced [3H]5-HT release, CONTROL", "setting": "SERT [1]", "result": "85±1", "unit": "%"}]}, {"smiles": "Brc1ccc(CN2CCC(CCOC(c3ccccc3)c3ccccc3)CC2)cc1", "note": "[EG-1-149, 4-(2-(Benzhydryloxy)ethyl)-1-(4-bromobenzyl)piperidine oxalate]", "values": [{"measurement": "IC50", "setting": "DAT", "result": "5.1 ± 0.4", "unit": "nM"}, {"measurement": "Ki", "setting": "SERT [2]", "result": "713 nM and 1180 nM and 4820 nM and 2900 nM and 1770 nM"}, {"measurement": "IC50", "setting": "SERT [3]", "result": 1760, "unit": "nM"}]}, {"smiles": "Cc1cc(NC(=O)Nc2ccc3c(ccn3C)c2)sn1", "note": "[SB204741, N-(1-Methyl-1H-indol-5-yl)-N′-(3-methylisothiazol-5-yl)urea]", "values": [{"measurement": "effect on EMAX of MDMA-induced [3H]5-HT release", "setting": "SERT [1]; [4]", "result": "without altering the EMAX values"}, {"measurement": "rightward shift of the MDMA dose-response curve ([3H]5-HT release)", "setting": "SERT [1]; [4]", "result": "3–4 fold"}, {"measurement": "IC50", "setting": "SERT [3]", "result": 38000, "unit": "nM"}]}, {"smiles": "Clc1cccc(N2CCNCC2)c1", "note": "[mCPP, meta-chlorophenylpiperazine]", "values": [{"measurement": "EMAX substrate-induced [3H]5-HT release, CONTROL", "setting": "SERT [1]", "result": "94±3% and 91±1%"}]}]}
